ChEMBL document CHEMBL1201862, “PubChem BioAssay data set” (2004)
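Five concentrations, 48 hours, 96-well plates. Abbreviation: GI50, concentration required for 50% inhibition of growth.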 Active and inactive are the calls of the source. Rule as the data show it: active = GI50 up to about 1.1 µM and inactive = higher.

Legend:
Assay in all cases: inhibition of tumour cell growth, NCI panel, 48 h
786-0 = tested on: 786-0
ACHN = tested on: ACHN
CCRF-CEM = tested on: CCRF-CEM
COLO 205 = tested on: COLO 205
HOP-62 = tested on: HOP-62
HOP-92 = tested on: HOP-92
MCF7 = tested on: MCF7
NCI-H226 = tested on: NCI-H226
NCI-H23 = tested on: NCI-H23
NCI/ADR-RES = tested on: NCI/ADR-RES
OVCAR-3 = tested on: OVCAR-3
OVCAR-4 = tested on: OVCAR-4
PC-3 = tested on: PC-3
SF-539 = tested on: SF-539
SK-MEL-5 = tested on: SK-MEL-5
SNB-75 = tested on: SNB-75
SW-620 = tested on: SW-620
U-251 = tested on: U-251
UACC-62 = tested on: UACC-62
NCI-H522 = tested on: NCI-H522

Row | SMILES | GI50 (786-0) | GI50 (ACHN) | GI50 (CCRF-CEM) | GI50 (COLO 205) | GI50 (HOP-62) | GI50 (HOP-92) | GI50 (MCF7) | GI50 (NCI-H226) | GI50 (NCI-H23) | GI50 (NCI/ADR-RES) | GI50 (OVCAR-3) | GI50 (OVCAR-4) | GI50 (PC-3) | GI50 (SF-539) | GI50 (SK-MEL-5) | GI50 (SNB-75) | GI50 (SW-620) | GI50 (U-251) | GI50 (UACC-62) | GI50 (NCI-H522)
1 | CCOC(=O)[C@@]12C[C@](/C=C/OC)(O[Si](C)(C)C)[C@@]13c1cc(OC)c(OC)cc1CCN3C(=O)C2O (some centres not stated) | > 100 µM (inactive) | > 100 µM (inactive) | > 100 µM (inactive) | > 100 µM (inactive) | > 100 µM (inactive) | > 100 µM (inactive) | > 100 µM (inactive) | > 100 µM (inactive) | > 100 µM (inactive) | > 100 µM (inactive) | > 100 µM (inactive) | > 100 µM (inactive) | > 100 µM (inactive) | > 100 µM (inactive) | 38.5 µM (inactive) | 47.6 µM (inactive) | > 100 µM (inactive) | > 100 µM (inactive) | 46.9 µM (inactive) | –
2 | CCOC(=O)NC(Nc1ccc(S(=O)(=O)Nc2ccc(OC)nn2)cc1)(C(F)(F)F)C(F)(F)F | 20.9 µM (inactive) | 27 µM (inactive) | 26.5 µM (inactive) | 21.9 µM (inactive) | 25.8 µM (inactive) | 28.5 µM (inactive) | 36.4 µM (inactive) | 23 µM (inactive) | 31.3 µM (inactive) | 23.9 µM (inactive) | 20.7 µM (inactive) | 26.7 µM (inactive) | 21.3 µM (inactive) | 20.6 µM (inactive) | 17.8 µM (inactive) | 26.8 µM (inactive) | 44.1 µM (inactive) | 17.9 µM (inactive) | 45 µM (inactive) | –
3 | CO[C@]12CC(=O)C3(C(C[C@H]4CC5CC=C6C[C@@H](OC(C)=O)CC[C@]6(OC(C)=O)C5C[C@@]43C)C1)C1C[C@H]3[C@@H]4CC=C5C[C@@H](OC(C)=O)CC[C@]5(OC(C)=O)[C@H]4CC[C@]3(C)C12 (some centres not stated) | 19.8 µM (inactive) | 22.9 µM (inactive) | 74 µM (inactive) | 3.1 µM (inactive) | 18.8 µM (inactive) | 18.7 µM (inactive) | 17.3 µM (inactive) | – | 15.6 µM (inactive) | 14 µM (inactive) | 19.7 µM (inactive) | 4.5 µM (inactive) | 10.7 µM (inactive) | 19.6 µM (inactive) | 3.53 µM (inactive) | 36.7 µM (inactive) | 41 µM (inactive) | 17.5 µM (inactive) | 20.4 µM (inactive) | 14 µM (inactive)
4 | CCOC(=O)c1cn(C)c(=S)n2c1nc1ccccc12 | 74.1 µM (inactive) | 49.1 µM (inactive) | 48.2 µM (inactive) | > 100 µM (inactive) | > 100 µM (inactive) | 42.8 µM (inactive) | 44.6 µM (inactive) | 60.7 µM (inactive) | 91.8 µM (inactive) | 37.8 µM (inactive) | > 100 µM (inactive) | 34.8 µM (inactive) | 48.1 µM (inactive) | > 100 µM (inactive) | 86.7 µM (inactive) | > 100 µM (inactive) | > 100 µM (inactive) | > 100 µM (inactive) | 21.8 µM (inactive) | –
5 | COC1=CC(=O)c2c(c(COP(=O)(N(C)CCBr)N(C)CCBr)cn2C)C1=O | < 0.0103 µM (active) | < 0.01 µM (active) | < 0.0158 µM (active) | 0.0521 µM (active) | < 0.0203 µM (active) | 0.107 µM (active) | < 0.01 µM (active) | – | < 0.0326 µM (active) | 0.134 µM (active) | 0.226 µM (active) | 1.33 µM (inactive) | 0.643 µM (active) | < 0.0114 µM (active) | 0.0836 µM (active) | 0.0826 µM (active) | < 0.0109 µM (active) | < 0.0225 µM (active) | < 0.0333 µM (active) | 0.138 µM (active)
6 | C=CCN(CCN(CC=C)S(=O)(=O)c1ccc(C)cc1)S(=O)(=O)c1ccc(C)cc1 | – | > 100 µM (inactive) | > 100 µM (inactive) | > 100 µM (inactive) | – | 95.9 µM (inactive) | > 100 µM (inactive) | > 100 µM (inactive) | > 100 µM (inactive) | > 100 µM (inactive) | > 100 µM (inactive) | > 100 µM (inactive) | > 100 µM (inactive) | – | > 100 µM (inactive) | > 100 µM (inactive) | > 100 µM (inactive) | > 100 µM (inactive) | – | > 100 µM (inactive)
7 | O=C(CCO)OCCCCCC/C=C\CCCCCC/C=C\CCCCCCCCOC(=O)CCO | 18.5 µM (inactive) | 23.9 µM (inactive) | 3.05 µM (inactive) | > 100 µM (inactive) | 17.1 µM (inactive) | 18.2 µM (inactive) | 15.7 µM (inactive) | – | 17.9 µM (inactive) | 17.9 µM (inactive) | 23 µM (inactive) | 25.3 µM (inactive) | 17.1 µM (inactive) | > 100 µM (inactive) | > 100 µM (inactive) | 19.8 µM (inactive) | 26.6 µM (inactive) | 16.7 µM (inactive) | 16.3 µM (inactive) | 16.5 µM (inactive)
8 | Cc1oc(N)c(S(=O)(=O)c2ccc(Cl)cc2)c1C | 73.8 µM (inactive) | 37 µM (inactive) | 78.9 µM (inactive) | > 10 µM (inactive) | – | > 100 µM (inactive) | 50.4 µM (inactive) | 53.1 µM (inactive) | 32.8 µM (inactive) | 34.9 µM (inactive) | 29.1 µM (inactive) | 21.7 µM (inactive) | 23.7 µM (inactive) | 25.8 µM (inactive) | 44.7 µM (inactive) | 29.9 µM (inactive) | > 100 µM (inactive) | > 100 µM (inactive) | 37.9 µM (inactive) | 30 µM (inactive)
9 | CCOC(=O)Cc1ccc(Nc2nc3cc(C(F)(F)F)ccc3nc2C(=O)OCC)cc1 | 23.5 µM (inactive) | 33 µM (inactive) | – | > 100 µM (inactive) | 35 µM (inactive) | 38.8 µM (inactive) | 94.4 µM (inactive) | 17.6 µM (inactive) | 34.6 µM (inactive) | > 100 µM (inactive) | > 100 µM (inactive) | 18.9 µM (inactive) | > 100 µM (inactive) | 14.7 µM (inactive) | > 100 µM (inactive) | 20.7 µM (inactive) | > 100 µM (inactive) | 45.2 µM (inactive) | 48.8 µM (inactive) | 50.8 µM (inactive)
10 | O=C(Nc1ccccc1)c1cc(S(=O)(=O)n2ccnc2O)c(S)cc1Cl | > 100 µM (inactive) | > 100 µM (inactive) | > 100 µM (inactive) | > 100 µM (inactive) | > 100 µM (inactive) | > 100 µM (inactive) | > 100 µM (inactive) | > 100 µM (inactive) | > 100 µM (inactive) | > 100 µM (inactive) | > 100 µM (inactive) | – | > 100 µM (inactive) | > 100 µM (inactive) | > 100 µM (inactive) | 28.8 µM (inactive) | > 100 µM (inactive) | > 100 µM (inactive) | > 100 µM (inactive) | > 100 µM (inactive)
